Results reported in patent US10844077B2, “Thiazolyl-containing compounds for treating proliferative diseases” (Dana-Farber Cancer Institute, Inc., priority 2014, dated 2020).

What was measured:
Type in all cases: binding
broad panel of kinases [1] = biological target: broad panel of kinases (Homo sapiens, UniProt O14965); conditions: AURKA; 1 μM
broad panel of kinases [2] = biological target: broad panel of kinases (Homo sapiens, UniProt O15146); conditions: MUSK; 1 μM
broad panel of kinases [3] = biological target: broad panel of kinases (Homo sapiens, UniProt O60331); conditions: PIP5K1C; 1 μM
broad panel of kinases [4] = biological target: broad panel of kinases (Homo sapiens, UniProt O75385); conditions: ULK1; 1 μM
broad panel of kinases [5] = biological target: broad panel of kinases (Homo sapiens, UniProt O75747); conditions: PIK3C2G; 1 μM
broad panel of kinases [6] = biological target: broad panel of kinases (Homo sapiens, UniProt O94768); conditions: DRAK2; 1 μM
broad panel of kinases [7] = biological target: broad panel of kinases (Homo sapiens, UniProt P00519, Y253F); conditions: ABL1(Y253F)-phosphorylated; 1 μM
broad panel of kinases [8] = biological target: broad panel of kinases (Homo sapiens, UniProt P00533); conditions: EGFR; 1 μM
broad panel of kinases (Homo sapiens, UniProt P00533), sequence (P00533 25-1210 limits assumed): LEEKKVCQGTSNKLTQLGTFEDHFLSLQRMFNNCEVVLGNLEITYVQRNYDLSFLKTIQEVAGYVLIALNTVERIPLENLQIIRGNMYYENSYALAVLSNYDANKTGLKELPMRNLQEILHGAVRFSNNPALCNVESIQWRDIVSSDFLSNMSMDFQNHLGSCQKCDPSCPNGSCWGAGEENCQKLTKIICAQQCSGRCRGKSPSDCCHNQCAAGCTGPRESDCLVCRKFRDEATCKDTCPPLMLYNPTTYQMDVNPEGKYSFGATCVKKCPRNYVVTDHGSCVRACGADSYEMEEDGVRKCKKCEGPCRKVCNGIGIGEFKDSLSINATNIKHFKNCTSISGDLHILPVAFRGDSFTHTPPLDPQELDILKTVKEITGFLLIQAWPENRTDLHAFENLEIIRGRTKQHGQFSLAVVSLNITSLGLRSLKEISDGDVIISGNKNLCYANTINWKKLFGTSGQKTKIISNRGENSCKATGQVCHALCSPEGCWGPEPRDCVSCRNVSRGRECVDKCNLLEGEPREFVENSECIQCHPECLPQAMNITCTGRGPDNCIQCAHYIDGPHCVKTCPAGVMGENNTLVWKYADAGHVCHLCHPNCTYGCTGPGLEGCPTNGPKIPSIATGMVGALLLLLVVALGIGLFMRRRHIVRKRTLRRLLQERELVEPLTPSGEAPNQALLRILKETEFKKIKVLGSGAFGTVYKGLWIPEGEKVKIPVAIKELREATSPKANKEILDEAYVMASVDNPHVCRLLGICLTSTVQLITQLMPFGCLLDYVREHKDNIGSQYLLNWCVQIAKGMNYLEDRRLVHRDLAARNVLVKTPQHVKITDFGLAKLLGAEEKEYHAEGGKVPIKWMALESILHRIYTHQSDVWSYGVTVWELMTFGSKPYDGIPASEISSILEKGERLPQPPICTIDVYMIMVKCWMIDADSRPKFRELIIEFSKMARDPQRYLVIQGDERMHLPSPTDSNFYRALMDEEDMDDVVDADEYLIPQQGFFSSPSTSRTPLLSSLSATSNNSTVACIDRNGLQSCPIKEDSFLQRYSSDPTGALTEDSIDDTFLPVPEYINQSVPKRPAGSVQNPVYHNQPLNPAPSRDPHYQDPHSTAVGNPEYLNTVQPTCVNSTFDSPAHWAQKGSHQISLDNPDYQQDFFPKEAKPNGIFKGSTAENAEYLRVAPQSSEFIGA

broad panel of kinases [9] = biological target: broad panel of kinases (Homo sapiens, UniProt P00533, L861Q); conditions: EGFR(L861Q); 1 μM
broad panel of kinases [10] = biological target: broad panel of kinases (Homo sapiens, UniProt P09769); conditions: FGR; 1 μM
broad panel of kinases [11] = biological target: broad panel of kinases (Homo sapiens, UniProt P10721, V559D/V654A); conditions: KIT(V559D, V654A); 1 μM
broad panel of kinases [12] = biological target: broad panel of kinases (Homo sapiens, UniProt P14616); conditions: INSRR; 1 μM
broad panel of kinases (Homo sapiens, UniProt P14616), sequence (P14616 27-742 limits assumed): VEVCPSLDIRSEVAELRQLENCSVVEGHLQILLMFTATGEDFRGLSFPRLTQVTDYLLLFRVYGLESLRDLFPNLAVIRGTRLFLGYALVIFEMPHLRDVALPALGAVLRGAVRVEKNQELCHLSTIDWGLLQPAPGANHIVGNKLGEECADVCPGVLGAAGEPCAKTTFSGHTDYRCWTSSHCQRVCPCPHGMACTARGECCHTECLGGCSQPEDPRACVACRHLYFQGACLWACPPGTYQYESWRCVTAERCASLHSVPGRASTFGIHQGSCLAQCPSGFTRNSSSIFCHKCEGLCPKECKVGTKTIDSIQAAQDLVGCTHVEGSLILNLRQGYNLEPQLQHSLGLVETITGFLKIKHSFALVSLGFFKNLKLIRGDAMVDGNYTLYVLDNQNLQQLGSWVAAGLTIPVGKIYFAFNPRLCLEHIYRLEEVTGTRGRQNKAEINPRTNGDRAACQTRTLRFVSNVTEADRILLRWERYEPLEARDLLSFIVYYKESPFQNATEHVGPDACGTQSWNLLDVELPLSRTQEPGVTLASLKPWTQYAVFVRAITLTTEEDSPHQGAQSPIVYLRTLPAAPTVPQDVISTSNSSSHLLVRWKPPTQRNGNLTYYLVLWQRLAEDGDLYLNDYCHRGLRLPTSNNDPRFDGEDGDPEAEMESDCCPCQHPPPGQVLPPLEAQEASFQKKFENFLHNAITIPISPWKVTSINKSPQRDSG
broad panel of kinases (Homo sapiens, UniProt P14616), sequence (P14616 747-1297 limits assumed): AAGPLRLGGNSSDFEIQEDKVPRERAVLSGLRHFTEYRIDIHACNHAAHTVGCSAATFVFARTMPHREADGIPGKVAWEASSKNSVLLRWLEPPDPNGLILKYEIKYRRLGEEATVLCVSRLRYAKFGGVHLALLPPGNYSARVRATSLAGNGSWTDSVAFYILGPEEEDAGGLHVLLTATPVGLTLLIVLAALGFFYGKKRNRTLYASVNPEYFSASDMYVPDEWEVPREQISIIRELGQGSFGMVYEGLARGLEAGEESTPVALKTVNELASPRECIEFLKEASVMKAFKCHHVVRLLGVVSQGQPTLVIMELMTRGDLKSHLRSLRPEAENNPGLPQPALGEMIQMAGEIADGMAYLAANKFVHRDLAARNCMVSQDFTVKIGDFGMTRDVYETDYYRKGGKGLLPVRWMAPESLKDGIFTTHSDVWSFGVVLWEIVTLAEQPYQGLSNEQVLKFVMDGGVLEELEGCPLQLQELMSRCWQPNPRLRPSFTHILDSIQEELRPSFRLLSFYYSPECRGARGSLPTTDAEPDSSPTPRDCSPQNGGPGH

broad panel of kinases [13] = biological target: broad panel of kinases (Homo sapiens, UniProt P16591); conditions: FER; 1 μM
broad panel of kinases [14] = biological target: broad panel of kinases (Homo sapiens, UniProt P20794); conditions: MAK; 1 μM
broad panel of kinases [15] = biological target: broad panel of kinases (Homo sapiens, UniProt P21802); conditions: FGFR2; 1 μM
broad panel of kinases [16] = biological target: broad panel of kinases (Homo sapiens, UniProt P30291); conditions: WEE1; 1 μM
broad panel of kinases [17] = biological target: broad panel of kinases (Homo sapiens, UniProt P37023); conditions: ACVRL1; 1 μM
broad panel of kinases (Homo sapiens, UniProt P37023), sequence (P37023 22-503 limits assumed): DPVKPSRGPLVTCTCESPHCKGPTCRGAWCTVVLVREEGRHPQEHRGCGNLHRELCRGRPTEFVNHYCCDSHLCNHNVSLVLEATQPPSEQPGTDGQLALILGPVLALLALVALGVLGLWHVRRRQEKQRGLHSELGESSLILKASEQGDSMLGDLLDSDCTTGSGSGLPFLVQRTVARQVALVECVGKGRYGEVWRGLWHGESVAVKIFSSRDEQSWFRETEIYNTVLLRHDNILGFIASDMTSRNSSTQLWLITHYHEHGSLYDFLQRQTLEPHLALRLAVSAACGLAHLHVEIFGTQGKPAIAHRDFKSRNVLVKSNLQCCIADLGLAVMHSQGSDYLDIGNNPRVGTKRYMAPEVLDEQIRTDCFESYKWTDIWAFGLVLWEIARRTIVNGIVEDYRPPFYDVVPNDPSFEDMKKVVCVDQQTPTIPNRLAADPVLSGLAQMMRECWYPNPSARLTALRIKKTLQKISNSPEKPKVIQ

broad panel of kinases [18] = biological target: broad panel of kinases (Homo sapiens, UniProt P42336, E545K); conditions: PIK3CA(E545K); 1 μM
broad panel of kinases [19] = biological target: broad panel of kinases (Homo sapiens, UniProt P42679); conditions: CTK; 1 μM
broad panel of kinases [20] = biological target: broad panel of kinases (Homo sapiens, UniProt P49137)
broad panel of kinases [21] = biological target: broad panel of kinases (Homo sapiens, UniProt P49841); conditions: GSK3B; 1 μM
broad panel of kinases [22] = biological target: broad panel of kinases (Homo sapiens, UniProt P51957); conditions: NEK4; 1 μM
broad panel of kinases [23] = biological target: broad panel of kinases (Homo sapiens, UniProt P57078); conditions: RIPK4; 1 μM
broad panel of kinases [24] = biological target: broad panel of kinases (Homo sapiens, UniProt Q12866); conditions: MERTK; 1 μM
broad panel of kinases (Homo sapiens, UniProt Q12866), sequence (Q12866 21-999 limits assumed): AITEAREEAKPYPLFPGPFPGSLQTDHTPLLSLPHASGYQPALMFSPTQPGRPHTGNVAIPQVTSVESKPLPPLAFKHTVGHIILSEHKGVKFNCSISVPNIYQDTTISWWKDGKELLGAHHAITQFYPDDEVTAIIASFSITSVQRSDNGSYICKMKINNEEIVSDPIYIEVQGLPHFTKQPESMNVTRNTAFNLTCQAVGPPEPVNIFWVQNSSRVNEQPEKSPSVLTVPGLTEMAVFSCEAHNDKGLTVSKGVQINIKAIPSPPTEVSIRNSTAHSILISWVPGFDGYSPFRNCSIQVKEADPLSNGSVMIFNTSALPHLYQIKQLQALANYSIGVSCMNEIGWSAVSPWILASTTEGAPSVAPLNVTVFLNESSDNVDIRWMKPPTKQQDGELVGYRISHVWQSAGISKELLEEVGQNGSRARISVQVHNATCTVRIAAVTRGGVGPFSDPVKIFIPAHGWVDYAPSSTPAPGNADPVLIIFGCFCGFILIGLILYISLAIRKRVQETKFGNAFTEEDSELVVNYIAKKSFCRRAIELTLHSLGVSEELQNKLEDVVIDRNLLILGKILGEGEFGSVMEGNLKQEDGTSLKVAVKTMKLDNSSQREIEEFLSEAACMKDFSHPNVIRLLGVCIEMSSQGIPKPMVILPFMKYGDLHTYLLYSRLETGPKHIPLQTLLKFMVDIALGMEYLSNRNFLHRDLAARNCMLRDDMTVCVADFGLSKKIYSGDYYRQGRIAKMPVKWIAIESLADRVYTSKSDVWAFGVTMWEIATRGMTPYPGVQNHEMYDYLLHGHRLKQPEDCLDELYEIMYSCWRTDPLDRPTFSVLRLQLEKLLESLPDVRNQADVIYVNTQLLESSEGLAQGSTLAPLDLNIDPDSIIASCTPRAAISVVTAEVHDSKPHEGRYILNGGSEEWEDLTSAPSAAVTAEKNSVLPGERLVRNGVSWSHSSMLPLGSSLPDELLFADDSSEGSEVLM

broad panel of kinases [25] = biological target: broad panel of kinases (Homo sapiens, UniProt Q13043); conditions: MST1; 1 μM
broad panel of kinases [26] = biological target: broad panel of kinases (Homo sapiens, UniProt Q13554); conditions: CAMK2B; 1 μM
broad panel of kinases [27] = biological target: broad panel of kinases (Homo sapiens, UniProt Q13976); conditions: PRKG1; 1 μM
broad panel of kinases (Homo sapiens, UniProt Q13976), sequence (Q13976 2-671 limits assumed): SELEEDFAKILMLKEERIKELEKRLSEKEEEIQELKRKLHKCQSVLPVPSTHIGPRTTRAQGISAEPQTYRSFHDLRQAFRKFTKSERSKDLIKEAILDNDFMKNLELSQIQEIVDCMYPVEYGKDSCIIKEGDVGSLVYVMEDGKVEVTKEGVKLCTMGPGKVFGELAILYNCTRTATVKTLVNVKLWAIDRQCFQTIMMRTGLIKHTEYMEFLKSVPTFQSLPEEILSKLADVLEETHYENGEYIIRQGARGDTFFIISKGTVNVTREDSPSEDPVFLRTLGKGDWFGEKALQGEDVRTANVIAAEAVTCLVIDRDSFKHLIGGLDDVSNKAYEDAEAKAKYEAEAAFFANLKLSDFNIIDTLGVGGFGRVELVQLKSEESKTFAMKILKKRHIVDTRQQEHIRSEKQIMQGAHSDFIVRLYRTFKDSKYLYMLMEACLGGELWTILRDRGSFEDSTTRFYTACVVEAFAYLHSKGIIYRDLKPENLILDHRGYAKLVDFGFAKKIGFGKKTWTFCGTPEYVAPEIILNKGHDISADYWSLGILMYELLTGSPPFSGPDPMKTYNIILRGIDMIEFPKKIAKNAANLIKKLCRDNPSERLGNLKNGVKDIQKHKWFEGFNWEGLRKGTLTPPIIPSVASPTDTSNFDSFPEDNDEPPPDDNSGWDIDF

broad panel of kinases [28] = biological target: broad panel of kinases (Homo sapiens, UniProt Q15746); conditions: MYLK; 1 μM
broad panel of kinases [29] = biological target: broad panel of kinases (Homo sapiens, UniProt Q52WX2); conditions: SBK1; 1 μM
broad panel of kinases [30] = biological target: broad panel of kinases (Homo sapiens, UniProt Q8IY84); conditions: NIM1; 1 μM
broad panel of kinases [31] = biological target: broad panel of kinases (Homo sapiens, UniProt Q9BVS4); conditions: RIOK2; 1 μM
broad panel of kinases [32] = biological target: broad panel of kinases (Homo sapiens, UniProt Q9BYT3); conditions: STK33; 1 μM
broad panel of kinases [33] = biological target: broad panel of kinases (Homo sapiens, UniProt Q9UIK4); conditions: DAPK2; 1 μM
broad panel of kinases [34] = biological target: broad panel of kinases (Homo sapiens, UniProt Q9UKE5); conditions: TNIK; 1 μM
broad panel of kinases [35] = biological target: broad panel of kinases (Homo sapiens, UniProt Q9Y2K2); conditions: QSK; 1 μM
broad panel of kinases [36] = biological target: broad panel of kinases (Homo sapiens, UniProt Q9Y6M4); conditions: CSNK1G3; 1 μM
broad panel of kinases [37] = biological target: broad panel of kinases (Plasmodium falciparum, UniProt P62344)

SMILES	percent of control binding remaining (lower = stronger binding) (broad panel of kinases [1])	percent of control binding remaining (lower = stronger binding) (broad panel of kinases [2])	percent of control binding remaining (lower = stronger binding) (broad panel of kinases [3])	percent of control binding remaining (lower = stronger binding) (broad panel of kinases [4])	percent of control binding remaining (lower = stronger binding) (broad panel of kinases [5])	percent of control binding remaining (lower = stronger binding) (broad panel of kinases [6])	percent of control binding remaining (lower = stronger binding) (broad panel of kinases [8])	percent of control binding remaining (lower = stronger binding) (broad panel of kinases [9])	percent of control binding remaining (lower = stronger binding) (broad panel of kinases [10])	percent of control binding remaining (lower = stronger binding) (broad panel of kinases [11])	percent of control binding remaining (lower = stronger binding) (broad panel of kinases [12])	percent of control binding remaining (lower = stronger binding) (broad panel of kinases [13])	percent of control binding remaining (lower = stronger binding) (broad panel of kinases [14])	percent of control binding remaining (lower = stronger binding) (broad panel of kinases [15])	percent of control binding remaining (lower = stronger binding) (broad panel of kinases [16])	percent of control binding remaining (lower = stronger binding) (broad panel of kinases [17])	percent of control binding remaining (lower = stronger binding) (broad panel of kinases [18])	percent of control binding remaining (lower = stronger binding) (broad panel of kinases [19])	% change compared to control (broad panel of kinases [20])	percent of control binding remaining (lower = stronger binding) (broad panel of kinases [21])	further results
C=CC(=O)N1CC[C@H](Nc2nc(CN3CCOCC3)cc(Nc3ncc(C(=O)Nc4c(C)cccc4C)s3)n2)C1 [Example I-2]	73%	98%	99%	79%	92%	100%	5.6%	1.3%	0.1%	7.2%	96%	100%	100%	73%	93%	54%	94%	67%	100%	100%	percent of control binding remaining (lower = stronger binding) (broad panel of kinases [7]): 0.1%; percent of control binding remaining (lower = stronger binding) (broad panel of kinases [22]): 100%; percent of control binding remaining (lower = stronger binding) (broad panel of kinases [23]): 95%; percent of control binding remaining (lower = stronger binding) (broad panel of kinases [24]): 90%; percent of control binding remaining (lower = stronger binding) (broad panel of kinases [25]): 100%; percent of control binding remaining (lower = stronger binding) (broad panel of kinases [26]): 84%; percent of control binding remaining (lower = stronger binding) (broad panel of kinases [27]): 100%; percent of control binding remaining (lower = stronger binding) (broad panel of kinases [28]): 85%; percent of control binding remaining (lower = stronger binding) (broad panel of kinases [29]): 54%; percent of control binding remaining (lower = stronger binding) (broad panel of kinases [30]): 93%; percent of control binding remaining (lower = stronger binding) (broad panel of kinases [31]): 92%; percent of control binding remaining (lower = stronger binding) (broad panel of kinases [32]): 86%; percent of control binding remaining (lower = stronger binding) (broad panel of kinases [33]): 86%; percent of control binding remaining (lower = stronger binding) (broad panel of kinases [34]): 97%; percent of control binding remaining (lower = stronger binding) (broad panel of kinases [35]): 36%; percent of control binding remaining (lower = stronger binding) (broad panel of kinases [36]): 96%; % change compared to control (broad panel of kinases [37]): 24%
C=CC(=O)N1CC[C@H](Nc2nccc(Nc3ncc(C(=O)Nc4c(C)cccc4C)s3)n2)C1 [Example I-3]	80%	100%	65%	86%	97%	100%	2.6%	0.8%	0%	25%	100%	99%	100%	88%	100%	76%	100%	81%	100%	100%	% change compared to control (broad panel of kinases [7]): 0.1%; percent of control binding remaining (lower = stronger binding) (broad panel of kinases [22]): 100%; percent of control binding remaining (lower = stronger binding) (broad panel of kinases [23]): 100%; percent of control binding remaining (lower = stronger binding) (broad panel of kinases [24]): 100%; percent of control binding remaining (lower = stronger binding) (broad panel of kinases [25]): 97%; percent of control binding remaining (lower = stronger binding) (broad panel of kinases [26]): 81%; percent of control binding remaining (lower = stronger binding) (broad panel of kinases [27]): 100%; percent of control binding remaining (lower = stronger binding) (broad panel of kinases [28]): 93%; percent of control binding remaining (lower = stronger binding) (broad panel of kinases [29]): 58%; percent of control binding remaining (lower = stronger binding) (broad panel of kinases [30]): 84%; percent of control binding remaining (lower = stronger binding) (broad panel of kinases [31]): 77%; percent of control binding remaining (lower = stronger binding) (broad panel of kinases [32]): 96%; percent of control binding remaining (lower = stronger binding) (broad panel of kinases [33]): 80%; percent of control binding remaining (lower = stronger binding) (broad panel of kinases [34]): 93%; percent of control binding remaining (lower = stronger binding) (broad panel of kinases [35]): 50%; percent of control binding remaining (lower = stronger binding) (broad panel of kinases [36]): 95%; % change compared to control (broad panel of kinases [37]): 8.1%
